From patent publication US20070219186A1, “Pyrazolo[1,5-A]pyrimidine derivatives and methods of use thereof” (priority 2006, published 2007)

Molecular target: T1, human B-Raf (Homo sapiens, UniProt P15056)
T1 construct: Flag; GST; made in house; host or cells: Sf9 insect cells (B-Raf); E. coli (MEK1-GST)
Assay: B-Raf Kinase to MEK1 ELISA
Type: biochemical
Details: for IC50: median, cpd concentrations from 10 μM to 30 nM in half log dilutions, read-out: Median IC50; for inhibition at 10 µM: read-out: % Inhib./10 uM
Outline: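 Flag/GST-tagged human B-Raf (Sf9, ~20 ng/point) phosphorylates non-active GST-MEK1 (50 nM final) with ATP and MgCl2 in MOPS pH 7.2 buffer, 60 min at RT. Product is captured on anti-GST plates; MEK1 pSer217/221 is read by phospho-antibody plus europium conjugate (DELFIA).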

T1 sequence (P15056 whole entry): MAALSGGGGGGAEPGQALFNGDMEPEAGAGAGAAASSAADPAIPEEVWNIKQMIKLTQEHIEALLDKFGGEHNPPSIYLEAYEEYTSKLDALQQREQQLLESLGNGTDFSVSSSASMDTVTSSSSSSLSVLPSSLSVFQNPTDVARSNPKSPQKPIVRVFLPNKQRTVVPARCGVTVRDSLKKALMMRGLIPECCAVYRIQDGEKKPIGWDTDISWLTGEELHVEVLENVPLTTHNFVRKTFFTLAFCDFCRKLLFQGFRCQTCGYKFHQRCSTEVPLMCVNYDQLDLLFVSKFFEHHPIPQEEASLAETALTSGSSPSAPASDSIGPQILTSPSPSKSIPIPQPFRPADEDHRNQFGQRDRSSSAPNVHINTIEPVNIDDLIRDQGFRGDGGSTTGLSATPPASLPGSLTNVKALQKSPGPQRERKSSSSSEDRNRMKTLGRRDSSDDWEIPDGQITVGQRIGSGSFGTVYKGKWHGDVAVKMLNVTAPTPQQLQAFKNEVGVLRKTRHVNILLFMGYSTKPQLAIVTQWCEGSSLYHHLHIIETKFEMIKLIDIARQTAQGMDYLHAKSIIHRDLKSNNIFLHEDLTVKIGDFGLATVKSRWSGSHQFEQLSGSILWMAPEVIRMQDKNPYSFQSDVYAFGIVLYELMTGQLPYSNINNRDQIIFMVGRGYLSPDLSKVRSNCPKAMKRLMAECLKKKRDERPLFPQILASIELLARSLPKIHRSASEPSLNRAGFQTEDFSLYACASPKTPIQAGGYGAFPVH

SMILES: CC(C)(C)OC(=O)NC1CCN(c2cc3nccc(-c4cccc(NC(=O)c5cccc(C(F)(F)F)c5)c4)n3n2)C1 (centres unmarked) [Example 212, tert-butyl {1-[7-(3-{[3-(trifluoromethyl)benzoyl]amino}phenyl)pyrazolo[1,5-a]pyrimidin-2-yl]pyrrolidin-3-yl}carbamate]
- IC50: > 10 µM
- inhibition at 10 µM: 22%

SMILES: NC1CCN(c2cc3nccc(-c4cccc(NC(=O)c5cccc(C(F)(F)F)c5)c4)n3n2)C1 (centres unmarked) [Example 213, N-{3-[2-(3-aminopyrrolidin-1-yl)pyrazolo[1,5-a]pyrimidin-7-yl]phenyl}-3-(trifluoromethyl)benzamide]
- IC50: > 10 µM
- inhibition at 10 µM: 40%

SMILES: CCOC(=O)c1cnn2c(-c3cccc(NC(=O)c4cnccn4)c3)ccnc12 [Example 214, ethyl7-{3-[(pyrazin-2-ylcarbonyl)amino]phenyl}pyrazolo[1,5-a]pyrimidine-3-carboxylate]
- IC50: > 10 µM
- inhibition at 10 µM: 8%

SMILES: CCOC(=O)c1cnn2c(-c3cccc(NC(=O)c4cccn4C)c3)ccnc12 [Example 215, ethyl7-(3-{[(1-methyl-1H-pyrrol-2-yl)carbonyl]amino}phenyl)pyrazolo[1,5-a]pyrimidine-3-carboxylate]
- IC50: > 10 µM
- inhibition at 10 µM: 0%

SMILES: CCOC(=O)c1cnn2c(-c3cccc(NC(=O)c4cnc(C)cn4)c3)ccnc12 [Example 216, Ethyl7-(3-{[(5-methylpyrazin-2-yl)carbonyl]amino}phenyl)pyrazolo[1,5-a]pyrimidine-3-carboxylate]
- IC50: > 10 µM
- inhibition at 10 µM: 3%

SMILES: CCOC(=O)c1cnn2c(-c3cccc(NC(=O)c4cc(Cl)ccn4)c3)ccnc12 [Example 217, ethyl7-(3-{[(4-chloropyridin-2-yl)carbonyl]amino}phenyl)pyrazolo[1,5-a]pyrimidine-3-carboxylate]
- IC50: > 10 µM
- inhibition at 10 µM: 34%

SMILES: CCOC(=O)c1cnn2c(-c3cccc(NC(=O)c4nccc5ccccc45)c3)ccnc12 [Example 218, ethyl7-{3-[(isoquinolin-1-ylcarbonyl)amino]phenyl}pyrazolo[1,5-a]pyrimidine-3-carboxylate]
- IC50: 4.49 µM
- inhibition at 10 µM: 73%

SMILES: CCOC(=O)c1cnn2c(-c3cccc(NC(=O)c4cc5ccccc5n4C)c3)ccnc12 [Example 219, ethyl 7-(3-{[(1-methyl-1H-indol-2-yl)carbonyl]amino}phenyl)pyrazolo[1,5-a]pyrimidine-3-carboxylate]
- IC50: > 10 µM
- inhibition at 10 µM: 12%

SMILES: CCOC(=O)c1cnn2c(-c3cccc(NC(=O)c4nn(-c5ccccc5)nc4C)c3)ccnc12 [Example 220, ethyl7-(3-{[(5-methyl-2-phenyl-2H-1,2,3-triazol-4-yl)carbonyl]amino}phenyl)pyrazolo[1,5-a]pyrimidine-3-carboxylate]
- IC50: > 10 µM
- inhibition at 10 µM: 30%

SMILES: CCOC(=O)c1cnn2c(-c3cccc(NC(=O)c4ccc(C)s4)c3)ccnc12 [Example 221, ethyl7-(3-{[(5-methyl-2-thienyl)carbonyl]amino}phenyl)pyrazolo[1,5-a]pyrimidine-3-carboxylate]
- IC50: 9.7 µM
- inhibition at 10 µM: 65%

SMILES: CCOC(=O)c1cnn2c(-c3cccc(NC(=O)c4ccc(Cl)s4)c3)ccnc12 [Example 222, ethyl 7-(3-{[(5-chloro-2-thienyl)carbonyl]amino}phenyl)pyrazolo[1,5-a]pyrimidine-3-carboxylate]
- IC50: > 10 µM
- inhibition at 10 µM: 43%

SMILES: CCOC(=O)c1cnn2c(-c3cccc(NC(=O)c4ccc(Br)s4)c3)ccnc12 [Example 223, ethyl7-(3-{[(5-bromo-2-thienyl)carbonyl]amino}phenyl)pyrazolo[1,5-a]pyrimidine-3-carboxylate]
- IC50: > 10 µM
- inhibition at 10 µM: 47%

SMILES: CCOC(=O)c1cnn2c(-c3cccc(NC(=O)c4ccc(-c5cc(C(F)(F)F)nn5C)s4)c3)ccnc12 [Example 224, ethyl7-{3-[({5-[1-methyl-3-(trifluoromethyl)-1H-pyrazol-5-yl]-2-thienyl}carbonyl)amino]phenyl}pyrazolo[1,5-a]pyrimidine-3-carboxylate]
- IC50: > 10 µM
- inhibition at 10 µM: 39%
